Experiments:
[1] = Fasted state simulated gastric fluid (FaSSGF) kinetic solubility assay; assay type: physicochemical; settings: kinetic solubility in FaSSGF, 0-24 h
Description: (§1) The content of opicapone in kinetic solubility studies was analysed by HPLC coupled to a UV/Vis detector (Waters series, USA). A C18 column was used. The mobile phase consisted of 0.1% o-phophoric acid and acetonitrile (68:32 v/v).
Kinetic solubility studies on the opicapone solid dispersion were performed at room temperature at a loading equivalent to˜10 mg of opicapone per mL of FaSSGF, in a total of 5 mL of medium. Samples were tested at 0, 0.5, 1, 2, 4 and 24 hours (Klein, AAPS J., 2010, 12, 397-406).
(§2) Area under the Concentration Curve (AUC), Cmax and other pharmacokinetic parameters were calculated using GraphPad Prism 7 for Windows (GraphPad Software, USA).

[2] = Fasted state simulated intestinal fluid (FaSSIF) kinetic solubility assay; assay type: physicochemical; settings: kinetic solubility in FaSSIF, 0-24 h
Description: as §1
Kinetic solubility studies on the opicapone solid dispersion were performed at room temperature at a loading equivalent to˜75 mg of opicapone per mL of FaSSIF, in a total of 5 mL of medium. Samples were tested at 0, 0.5, 1, 2, 4 and 24 hours (Klein, AAPS J., 2010, 12, 397-406).
as §2

[3] = In vivo pharmacokinetics after oral administration; settings: male Wistar rats, 3 mg/kg of opicapone, plasma
Description: The pharmacokinetics of solid dispersions of amorphous opicapone were evaluated in male Wistar rats, after oral administration of Sample 1, 4 or 6, or a control sample of micronised crystalline opicapone, at a dose of 3 mg/kg of opicapone. The exposure of these solid dispersions, formulated as a HPMC suspensions (50 mg of opicapone per 100 mL of 0.2% HPMC), were compared with the exposure of micronised crystalline opicapone, at a dose of 3 mg/kg of opicapone.
During the studies, blood was collected at different time points, from tail vein, spun at 1500×g in a refrigerated centrifuge (4° C.) for 15 min, and the plasma obtained was stored at −80° C. until further analysis. The plasma samples collected from twenty animals (140 samples), were analysed for opicapone exposure. The bioanalysis involved the use of LC-MS/MS after plasma precipitation.

[4] = Particle size distribution (circle equivalent diameter) by SEM; assay type: physicochemical; settings: particle size distribution (equivalent circular diameter) after micronisation, MC JETMILL 200
Description: A Phenom Pro-X Electron microscope (PhenomWorld, Thermo Fisher Scientific, USA) equipped with a CeB6 electron source and backscatter electron detector was used to determine the morphology and particle size of the samples.
The powder was placed on conductive adhesive tape. The holder for non-conductive samples was used. The excess of sample (loosely bound to the tape) was removed using compressed air.
Particle morphology was assessed by Automated Image Mapping software and particle size determination was made by Particlemetric software.

Cc1c(Cl)c(C)[n+]([O-])c(Cl)c1-c1noc(-c2cc(O)c(O)c([N+](=O)[O-])c2)n1 [Opicapone Control, opicapone] showed an AUC ([1]; Experiment 1) of 7.625 µg·h/mL, a Cmax ([1]; Experiment 1) of 300 ng/mL and an AUC ([1]; Experiment 2) of 5.75 µg·h/mL. It also gave a Cmax ([1]; Experiment 2) of 300 ng/mL, a tmax ([1]; Experiment 2) of 24 h and an AUC ([1]; Experiment 3) of 5.86 µg·h/mL. It also gave a Cmax ([1]; Experiment 3) of 260 ng/mL, a tmax ([1]; Experiment 3) of 24 h and a tmax ([2]; room temperature, Experiment 1) of 24 h. For the same compound, the AUC ([2]; Experiment 1) was 1589 µg·h/mL, the Cmax ([2]; Experiment 1) was 69000 ng/mL and the AUC ([2]; Experiment 2) was 1310 µg·h/mL. It also gave a Cmax ([2]; Experiment 2) of 86000 ng/mL, a tmax ([2]; Experiment 2) of 2 h and an AUC ([2]; Experiment 3) of 1400 µg·h/mL. For the same compound, the Cmax ([2]; Experiment 3) was 89000 ng/mL, the tlast [3] was 8 h and the AUC(0-t) ([3]; rat) was 1.4 µg·h/mL. It also gave a Cmax ([3]; rat) of 379 ng/mL, a tmax ([3]; rat) of 2 h and a concentration at 8 h ([3]; rat, read-out: Clast) of 78.6 ng/mL. For the same compound, the D10 [4] was ≥ 4 μm, the D50 [4] was 10-40 μm and the D95 [4] was ≤ 80 μm.
